The target in the test is T1, squalene synthase (Rattus norvegicus, UniProt Q02769).
T1 construct: Microsomes are prepared by centrifugation (100,000 g) and then resuspended in the assay buffer; from tissue; host or cells: liver microsomes of male Sprague-Dawley rats (animals from Taconic Farms, Germantown, N.Y.)
T1 sequence (Q02769 1-416): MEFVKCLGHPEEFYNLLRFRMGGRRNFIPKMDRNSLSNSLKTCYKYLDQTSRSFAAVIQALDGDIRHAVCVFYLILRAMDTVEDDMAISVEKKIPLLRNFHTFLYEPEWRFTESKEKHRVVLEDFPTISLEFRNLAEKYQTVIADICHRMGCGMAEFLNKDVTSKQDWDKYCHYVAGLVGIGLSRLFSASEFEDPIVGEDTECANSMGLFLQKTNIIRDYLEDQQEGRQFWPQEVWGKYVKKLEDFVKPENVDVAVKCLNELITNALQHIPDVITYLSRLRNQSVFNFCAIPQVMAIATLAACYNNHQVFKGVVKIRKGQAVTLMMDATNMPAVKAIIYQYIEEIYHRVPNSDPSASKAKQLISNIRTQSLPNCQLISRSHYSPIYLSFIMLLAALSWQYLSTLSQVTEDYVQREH
Put plainly: Squalene Synthase Inhibition Assay (rat liver microsomes, [3H]FPP). It counts as biochemical, rat (male Sprague-Dawley). Particulars: for IC50: 50 mM, pH 7.4. The procedure:
Squalene Synthase Inhibition Assay
I. Preparation of Assay Substances:
Test solutions are prepared fresh in 100% DMSO or dH2 O. Subsequent dilutions are made in the same solvent. Compounds are tested initially at 1 μM (final concentrations).
Potassium Phosphate (50 mM,) pH 7.4, and HEPES (4-(2-hydroxyethyl)-1-piperazineethanesulfonic acid, 50 mM) pH 7.4 stock buffers are prepared and stored at 4° C. until use.
C) Microsomal Enzyme Preparation:
Fresh livers from male Sprague-Dawley rats (Taconic Farms, Germantown, N.Y.) weighing 150-200 g are collected after exsanguination. All subsequent procedures are performed at 4° C. The liver is homogenized in the assay buffer (50 mM, pH 7.4). Cellular fractions are separated as described by Popjak, G. in "Enzymes of sterol biosynthesis in liver and intermediates of sterol biosynthesis," Meth. Enzymol. […] Microsomes are prepared by centrifugation (100,000 g) and then resuspended in the assay buffer. Microsomes are rehomogenized with a motor-driven Teflon pestle to yield a uniform suspension (~30 mg protein/ml), aliquoted, and stored at -80° C. until use.
II. Squalene Synthase Assay
The procedure is a modification of those described by Popjack (ibid) and Poulter et al. in "Squalene synthase. Inhibition by ammonium analogues of carbocationic intermediates in the conversion of presqualene diphosphate to squalene" J. Am. Chem. Soc. […] All components except [^3 H]FPP are preincubated for 10 min. at 37° C. The reaction is initiated by the addition of [^3 H]FPP. […] The tubes are incubated at 65° C. for 30 min. to solubilize proteins. The mixture is extracted with 5 ml petroleum ether for 10 min. After freezing the lower aqueous phase, the organic phase is transferred to glass tubes containing 2 ml distilled water. After washing the lower aqueous phase is frozen and the petroleum ether phase is removed and counted with 10 ml Ready Safe liquid scintillation cocktail using a Beckman LS-9000 scintillation counter. DPM values are adjusted against a blank (no enzyme).
The difference in radioactivity in the presence and absence of the test compound is used to determine the level of inhibition. […] Tallarida, R. J. and Murray, R. B. Manual of pharmacologic calculations with computer programs.
(In general: Liver microsomes are a subcellular fraction often used to study metabolism.)

A word on the inhibition: it is the relative decrease from the control value, in per cent. Broadly, the IC50 is the point on the concentration scale where inhibition reaches its midpoint. A high value points to weaker potency in that assay.

Turning to `CCOP(=O)(OCC)C(CCN[C@@H]1CCCC[C@H]1OCc1ccc(-c2nc3ccccc3o2)cc1)P(=O)(OCC)OCC` (relative stereo), the inhibition at 10 µM (HEPES buffer) came out at 14%.

Regarding `COP(=O)(O)C(CCN[C@@H]1CC=CC[C@H]1c1ccc(/C=C/c2ccccc2)cc1)P(=O)(O)OC` (relative stereo), the inhibition at 10 µM (HEPES buffer) turned out to be 69%. Compound `O=P(O)(O)C(CCN[C@@H]1CCCC[C@H]1OCc1ccc(-c2nc3ccccc3o2)cc1)P(=O)(O)O` (relative stereo) yielded an IC50 (HEPES buffer) of 0.013 µM. As for `O=P(O)(O)CCCN1CCC=C(c2ccc(-c3nc4ccccc4o3)cc2)C1`, the midpoint of inhibition (HEPES buffer), the IC50, lay at 17 µM. Besides, the inhibition at 10 µM (Phosphate buffer) was 35%. As to `O=P(O)(O)CCCN[C@@H]1CC=CC[C@H]1c1ccc(/C=C/c2ccccc2)cc1` (relative stereo), the inhibition at 10 µM (HEPES buffer) was -2%. Moreover, the inhibition at 5 µM (Phosphate buffer, @ 5 μM) is 61%.
